From ChEMBL document CHEMBL4002599, “Structure-based design and synthesis of imidazo[1,2-a]pyridine derivatives as novel and potent Nek2 inhibitors with in vitro and in vivo antitumor activities” (Eur J Med Chem, 2017)
Active and inactive are the calls of the source. The calls are words filed in the database; no cut-off is given here.

Tests used:
[1] = molecular target: T1, Serine/threonine-protein kinase Nek2 (Homo sapiens, UniProt P51955); test: Inhibition of N-terminal His6-tagged full-length recombinant human NEK2 expressed in baculovirus infected sf21 cells using biotin labelled-STK-3 substrate measured after 60 mins by HTRF assay
T1 sequence (P51955 whole entry): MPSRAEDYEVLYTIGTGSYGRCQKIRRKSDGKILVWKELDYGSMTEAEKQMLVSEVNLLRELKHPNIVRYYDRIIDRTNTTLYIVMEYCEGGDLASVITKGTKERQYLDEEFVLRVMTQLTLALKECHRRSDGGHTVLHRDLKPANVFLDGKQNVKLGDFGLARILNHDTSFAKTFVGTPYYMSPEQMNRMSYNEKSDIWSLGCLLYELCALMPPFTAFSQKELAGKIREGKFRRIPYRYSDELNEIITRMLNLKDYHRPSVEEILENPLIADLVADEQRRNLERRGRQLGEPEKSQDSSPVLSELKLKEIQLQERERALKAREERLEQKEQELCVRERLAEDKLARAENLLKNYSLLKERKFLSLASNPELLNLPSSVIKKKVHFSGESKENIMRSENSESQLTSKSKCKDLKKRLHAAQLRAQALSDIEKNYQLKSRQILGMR

MGC-803 = test: Cytotoxicity against human MGC803 cells measured after 72 hrs by MTT assay; format: functional, cell-based; conditions: MGC-803, 72 h
HCT-116 [2] = test: Induction of apoptosis in human HCT116 cells assessed as necrotic cells at 1 uM measured after 24 hrs by Annexin-V/PI staining based flow cytometry (reference value: 0.4%); format: functional
Bel-7402 = test: Cytotoxicity against human Bel7402 cells measured after 72 hrs by MTT assay; format: functional, cell-based; conditions: Bel-7402, 72 h
[3] = molecular target: Tyrosine-protein kinase ABL1 (Homo sapiens, UniProt P00519); test: Inhibition of ABL (unknown origin)
Tyrosine-protein kinase ABL1, sequence (P00519 whole entry): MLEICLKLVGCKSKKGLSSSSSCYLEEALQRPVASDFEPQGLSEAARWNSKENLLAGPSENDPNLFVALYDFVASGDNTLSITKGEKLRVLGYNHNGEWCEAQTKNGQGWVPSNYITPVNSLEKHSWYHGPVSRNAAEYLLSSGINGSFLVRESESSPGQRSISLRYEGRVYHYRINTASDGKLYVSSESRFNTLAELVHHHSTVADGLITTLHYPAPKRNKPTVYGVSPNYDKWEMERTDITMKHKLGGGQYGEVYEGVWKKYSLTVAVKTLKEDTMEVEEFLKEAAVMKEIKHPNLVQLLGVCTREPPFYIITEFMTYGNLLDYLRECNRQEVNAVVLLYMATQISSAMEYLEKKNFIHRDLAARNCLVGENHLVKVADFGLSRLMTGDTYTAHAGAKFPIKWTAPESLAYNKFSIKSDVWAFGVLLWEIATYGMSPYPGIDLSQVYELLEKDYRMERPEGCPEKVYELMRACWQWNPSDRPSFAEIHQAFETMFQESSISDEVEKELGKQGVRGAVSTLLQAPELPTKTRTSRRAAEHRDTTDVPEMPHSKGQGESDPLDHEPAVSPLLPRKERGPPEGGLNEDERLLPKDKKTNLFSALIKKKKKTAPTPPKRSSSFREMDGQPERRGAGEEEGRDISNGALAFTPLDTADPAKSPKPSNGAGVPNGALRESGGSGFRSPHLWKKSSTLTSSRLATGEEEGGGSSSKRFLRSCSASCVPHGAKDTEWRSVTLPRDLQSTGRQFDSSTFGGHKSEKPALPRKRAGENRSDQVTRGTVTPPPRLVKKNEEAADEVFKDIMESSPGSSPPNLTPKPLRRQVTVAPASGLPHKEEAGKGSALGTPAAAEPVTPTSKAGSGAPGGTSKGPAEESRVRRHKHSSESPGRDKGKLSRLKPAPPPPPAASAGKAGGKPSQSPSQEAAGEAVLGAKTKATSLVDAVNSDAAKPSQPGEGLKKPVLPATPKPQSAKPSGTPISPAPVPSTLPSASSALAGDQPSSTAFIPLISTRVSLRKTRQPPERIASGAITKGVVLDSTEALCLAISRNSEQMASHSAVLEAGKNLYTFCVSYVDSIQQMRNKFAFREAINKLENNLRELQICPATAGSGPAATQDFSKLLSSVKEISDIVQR

[4] = molecular target: Mitogen-activated protein kinase 14 (Homo sapiens, UniProt Q16539); test: Inhibition of P38alpha (unknown origin)
Mitogen-activated protein kinase 14, sequence (Q16539 whole entry): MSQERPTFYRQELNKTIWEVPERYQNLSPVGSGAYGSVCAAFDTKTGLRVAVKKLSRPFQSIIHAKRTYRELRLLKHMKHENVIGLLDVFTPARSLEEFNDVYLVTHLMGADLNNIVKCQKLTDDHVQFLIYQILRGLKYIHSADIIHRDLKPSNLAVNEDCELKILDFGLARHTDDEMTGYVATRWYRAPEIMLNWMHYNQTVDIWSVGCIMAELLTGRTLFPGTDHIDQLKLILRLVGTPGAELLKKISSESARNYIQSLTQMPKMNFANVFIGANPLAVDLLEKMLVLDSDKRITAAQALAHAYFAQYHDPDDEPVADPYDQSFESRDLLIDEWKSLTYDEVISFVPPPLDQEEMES

HCT-116 [5] = test: Induction of apoptosis in human HCT116 cells assessed as late apoptotic cells at 0.5 uM measured after 24 hrs by Annexin-V/PI staining based flow cytometry (reference value: […]); format: functional
[6] = MRT (0 to t) in Sprague-Dawley rat at 1 mg/kg, iv administered as bolus dose by LC-MS/MS method; format: ADME, organism-based; conditions: in vivo
[7] = molecular target: Ribosomal protein S6 kinase alpha-1 (Homo sapiens, UniProt Q15418); test: Inhibition of RSK1 (unknown origin)
Ribosomal protein S6 kinase alpha-1, sequence (Q15418 whole entry): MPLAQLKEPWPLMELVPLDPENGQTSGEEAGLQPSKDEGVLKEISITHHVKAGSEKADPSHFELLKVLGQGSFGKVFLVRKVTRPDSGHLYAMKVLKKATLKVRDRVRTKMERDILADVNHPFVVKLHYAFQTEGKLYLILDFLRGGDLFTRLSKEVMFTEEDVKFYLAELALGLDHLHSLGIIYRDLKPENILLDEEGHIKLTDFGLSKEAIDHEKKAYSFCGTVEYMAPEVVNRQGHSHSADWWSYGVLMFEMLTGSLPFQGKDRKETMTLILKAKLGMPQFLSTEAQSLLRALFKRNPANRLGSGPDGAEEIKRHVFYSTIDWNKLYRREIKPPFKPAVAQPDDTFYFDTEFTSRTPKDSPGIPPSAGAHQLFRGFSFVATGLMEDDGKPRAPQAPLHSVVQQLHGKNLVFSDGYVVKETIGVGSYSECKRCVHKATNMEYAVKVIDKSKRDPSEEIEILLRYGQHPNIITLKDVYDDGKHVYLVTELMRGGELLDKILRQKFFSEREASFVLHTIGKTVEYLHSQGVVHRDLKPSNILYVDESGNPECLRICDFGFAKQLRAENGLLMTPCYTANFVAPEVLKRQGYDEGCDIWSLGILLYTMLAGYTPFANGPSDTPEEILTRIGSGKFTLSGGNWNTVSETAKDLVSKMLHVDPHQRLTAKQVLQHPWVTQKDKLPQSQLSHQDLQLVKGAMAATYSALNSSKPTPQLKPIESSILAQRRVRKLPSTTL

Rattus norvegicus [8] = test: AUC (0 to t) in Sprague-Dawley rat at 1 mg/kg, iv administered as bolus dose by LC-MS/MS method; format: ADME, organism-based; conditions: in vivo
HCT-116 [9] = test: Induction of apoptosis in human HCT116 cells assessed as late apoptotic cells at 1 uM measured after 24 hrs by Annexin-V/PI staining based flow cytometry (reference value: […]); format: functional
[10] = molecular target: Cyclin-dependent kinase 4 (Homo sapiens, UniProt P11802); test: Inhibition of CDK4 (unknown origin)
Cyclin-dependent kinase 4, sequence (P11802 whole entry): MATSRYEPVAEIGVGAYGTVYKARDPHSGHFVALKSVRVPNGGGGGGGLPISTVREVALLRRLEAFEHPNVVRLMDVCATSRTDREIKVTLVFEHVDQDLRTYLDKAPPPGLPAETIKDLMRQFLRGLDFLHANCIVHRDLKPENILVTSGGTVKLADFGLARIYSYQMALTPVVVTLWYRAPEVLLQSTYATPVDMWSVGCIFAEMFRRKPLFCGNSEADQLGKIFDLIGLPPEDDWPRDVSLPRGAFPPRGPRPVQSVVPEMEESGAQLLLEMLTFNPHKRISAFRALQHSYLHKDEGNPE

Aurora kinase A = molecular target: T2, Aurora kinase A (Homo sapiens, UniProt O14965); test: Inhibition of Aurora A (unknown origin)
T2 sequence (O14965 whole entry): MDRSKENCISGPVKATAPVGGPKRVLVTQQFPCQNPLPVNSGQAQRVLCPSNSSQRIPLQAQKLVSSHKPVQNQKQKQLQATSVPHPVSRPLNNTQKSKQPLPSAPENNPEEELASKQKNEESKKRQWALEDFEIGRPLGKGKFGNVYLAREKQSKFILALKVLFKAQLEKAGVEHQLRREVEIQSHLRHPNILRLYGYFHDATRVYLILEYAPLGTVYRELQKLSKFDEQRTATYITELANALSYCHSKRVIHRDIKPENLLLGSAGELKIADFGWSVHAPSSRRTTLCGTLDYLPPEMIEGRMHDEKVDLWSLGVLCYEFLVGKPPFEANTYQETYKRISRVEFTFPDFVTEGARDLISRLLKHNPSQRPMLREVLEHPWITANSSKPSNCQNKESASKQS

HCT-116 [11] = test: Induction of apoptosis in human HCT116 cells assessed as early apoptotic cells at 1 uM measured after 24 hrs by Annexin-V/PI staining based flow cytometry (reference value: 4%); format: functional
[12] = molecular target: Glycogen synthase kinase-3 beta (Homo sapiens, UniProt P49841); test: Inhibition of GSK3beta (unknown origin)
Glycogen synthase kinase-3 beta, sequence (P49841 whole entry): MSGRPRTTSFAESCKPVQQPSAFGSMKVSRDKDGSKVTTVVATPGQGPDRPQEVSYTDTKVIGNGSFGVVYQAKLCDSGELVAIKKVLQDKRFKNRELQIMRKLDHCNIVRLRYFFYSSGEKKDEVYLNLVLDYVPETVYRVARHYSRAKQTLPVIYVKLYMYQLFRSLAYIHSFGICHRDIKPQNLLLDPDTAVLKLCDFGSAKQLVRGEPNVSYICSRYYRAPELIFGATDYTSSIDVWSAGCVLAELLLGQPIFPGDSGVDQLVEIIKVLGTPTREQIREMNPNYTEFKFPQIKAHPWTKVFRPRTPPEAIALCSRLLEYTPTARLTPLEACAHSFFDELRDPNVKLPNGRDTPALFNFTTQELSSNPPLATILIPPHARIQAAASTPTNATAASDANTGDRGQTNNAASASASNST

[13] = molecular target: MAP kinase-activated protein kinase 2 (Homo sapiens, UniProt P49137); test: Inhibition of MAPKAPK2 (unknown origin)
MAP kinase-activated protein kinase 2, sequence (P49137 whole entry): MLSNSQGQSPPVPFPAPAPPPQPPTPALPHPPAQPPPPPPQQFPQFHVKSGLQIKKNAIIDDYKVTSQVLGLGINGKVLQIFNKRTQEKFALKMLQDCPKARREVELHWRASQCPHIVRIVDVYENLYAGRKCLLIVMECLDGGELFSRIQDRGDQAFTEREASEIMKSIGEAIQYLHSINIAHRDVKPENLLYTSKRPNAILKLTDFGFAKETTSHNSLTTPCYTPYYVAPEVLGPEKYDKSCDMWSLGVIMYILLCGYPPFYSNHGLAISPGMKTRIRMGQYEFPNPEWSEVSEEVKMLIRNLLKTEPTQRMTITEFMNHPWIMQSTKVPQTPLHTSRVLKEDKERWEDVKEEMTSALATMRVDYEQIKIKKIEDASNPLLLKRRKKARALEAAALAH

[14] = Volume of distribution at steady state in Sprague-Dawley rat at 1 mg/kg, iv administered as bolus dose by LC-MS/MS method; format: ADME, organism-based; conditions: in vivo, read-out: Vdss
HCT-116 [15] = test: Cytotoxicity against human HCT116 cells measured after 72 hrs by MTT assay; format: functional, cell-based; conditions: HCT-116, 72 h
[16] = Clearance in Sprague-Dawley rat at 1 mg/kg, iv administered as bolus dose by LC-MS/MS method; format: ADME, organism-based; conditions: in vivo
HCT-116 [17] = test: Induction of apoptosis in human HCT116 cells assessed as early apoptotic cells at 0.5 uM measured after 24 hrs by Annexin-V/PI staining based flow cytometry (reference value: 4%); format: functional
[18] = molecular target: Dual specificity tyrosine-phosphorylation-regulated kinase 1A (Homo sapiens, UniProt Q13627); test: Inhibition of DYRK1A (unknown origin)
[19] = molecular target: RAC-alpha serine/threonine-protein kinase (Homo sapiens, UniProt P31749); test: Inhibition of AKT1 (unknown origin)
RAC-alpha serine/threonine-protein kinase, sequence (P31749 whole entry): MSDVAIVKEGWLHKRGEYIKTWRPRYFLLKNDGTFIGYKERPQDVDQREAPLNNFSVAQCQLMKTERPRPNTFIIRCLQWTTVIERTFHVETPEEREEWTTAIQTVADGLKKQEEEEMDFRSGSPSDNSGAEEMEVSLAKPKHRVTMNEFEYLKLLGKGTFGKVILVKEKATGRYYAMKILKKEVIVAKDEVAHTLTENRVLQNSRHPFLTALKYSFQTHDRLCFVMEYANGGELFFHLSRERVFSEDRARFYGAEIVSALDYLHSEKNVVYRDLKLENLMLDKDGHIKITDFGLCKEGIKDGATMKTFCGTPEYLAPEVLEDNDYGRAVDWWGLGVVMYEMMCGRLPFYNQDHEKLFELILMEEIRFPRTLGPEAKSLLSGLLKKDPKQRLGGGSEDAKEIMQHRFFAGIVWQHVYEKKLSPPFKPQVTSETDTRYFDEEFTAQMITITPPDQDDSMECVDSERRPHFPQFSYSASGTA

HCT-116 [20] = test: Induction of apoptosis in human HCT116 cells assessed as necrotic cells at 0.5 uM measured after 24 hrs by Annexin-V/PI staining based flow cytometry (reference value: 0.4%); format: functional
[21] = Half-life in Sprague-Dawley rat at 1 mg/kg, iv administered as bolus dose by LC-MS/MS method; format: ADME, organism-based; conditions: in vivo
[22] = molecular target: T3, Serine/threonine-protein kinase Chk1 (Homo sapiens, UniProt O14757); test: Inhibition of CHK1 (unknown origin)
T3 sequence (O14757 whole entry): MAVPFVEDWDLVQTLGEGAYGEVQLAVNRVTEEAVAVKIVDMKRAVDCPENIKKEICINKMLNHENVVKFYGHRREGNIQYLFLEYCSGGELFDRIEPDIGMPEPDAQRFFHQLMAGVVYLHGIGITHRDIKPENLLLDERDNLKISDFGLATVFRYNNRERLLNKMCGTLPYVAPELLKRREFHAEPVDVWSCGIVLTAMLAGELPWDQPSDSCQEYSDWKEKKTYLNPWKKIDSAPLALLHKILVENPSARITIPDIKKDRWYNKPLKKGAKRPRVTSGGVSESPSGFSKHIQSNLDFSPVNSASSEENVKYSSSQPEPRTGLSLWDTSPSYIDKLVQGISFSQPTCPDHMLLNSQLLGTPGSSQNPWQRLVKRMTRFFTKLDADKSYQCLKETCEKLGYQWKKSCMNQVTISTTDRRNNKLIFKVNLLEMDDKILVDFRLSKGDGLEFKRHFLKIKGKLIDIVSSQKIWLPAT

[23] = molecular target: Cyclin-dependent kinase 2 (Homo sapiens, UniProt P24941); test: Inhibition of CDK2 (unknown origin)
[24] = molecular target: Phosphatidylinositol 4,5-bisphosphate 3-kinase catalytic subunit alpha isoform (Homo sapiens, UniProt P42336); test: Inhibition of PI3Kalpha (unknown origin)
Phosphatidylinositol 4,5-bisphosphate 3-kinase catalytic subunit alpha isoform, sequence (P42336 whole entry, canonical isoform): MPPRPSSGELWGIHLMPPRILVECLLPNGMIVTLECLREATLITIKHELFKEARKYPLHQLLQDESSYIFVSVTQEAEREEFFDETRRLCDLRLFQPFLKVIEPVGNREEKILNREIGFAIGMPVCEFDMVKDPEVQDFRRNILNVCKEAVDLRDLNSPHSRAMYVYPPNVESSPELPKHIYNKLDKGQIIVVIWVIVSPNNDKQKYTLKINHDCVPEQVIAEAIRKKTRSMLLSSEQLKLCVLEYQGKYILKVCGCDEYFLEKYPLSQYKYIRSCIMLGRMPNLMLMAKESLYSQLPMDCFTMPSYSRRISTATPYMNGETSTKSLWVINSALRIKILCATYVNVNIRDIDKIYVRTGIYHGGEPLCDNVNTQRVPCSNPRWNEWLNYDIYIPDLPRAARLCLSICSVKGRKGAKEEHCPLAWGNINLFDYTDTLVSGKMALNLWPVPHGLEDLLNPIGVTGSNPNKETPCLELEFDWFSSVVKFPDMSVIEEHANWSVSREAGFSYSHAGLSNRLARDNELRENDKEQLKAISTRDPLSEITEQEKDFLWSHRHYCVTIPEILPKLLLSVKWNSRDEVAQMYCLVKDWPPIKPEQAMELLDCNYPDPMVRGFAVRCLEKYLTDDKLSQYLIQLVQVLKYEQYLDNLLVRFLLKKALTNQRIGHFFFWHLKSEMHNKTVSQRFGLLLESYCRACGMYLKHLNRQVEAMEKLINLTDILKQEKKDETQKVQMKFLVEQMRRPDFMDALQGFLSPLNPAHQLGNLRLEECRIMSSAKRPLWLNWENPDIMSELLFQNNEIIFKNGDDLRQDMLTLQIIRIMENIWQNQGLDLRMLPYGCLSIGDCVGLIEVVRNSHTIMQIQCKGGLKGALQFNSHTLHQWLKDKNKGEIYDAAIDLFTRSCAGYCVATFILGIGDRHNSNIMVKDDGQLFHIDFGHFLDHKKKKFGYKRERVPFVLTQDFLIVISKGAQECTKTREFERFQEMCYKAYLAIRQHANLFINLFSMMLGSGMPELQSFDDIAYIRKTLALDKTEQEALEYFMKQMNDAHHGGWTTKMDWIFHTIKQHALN

Rattus norvegicus [25] = test: AUC (0 to infinity) in Sprague-Dawley rat at 1 mg/kg, iv administered as bolus dose by LC-MS/MS method; format: ADME, organism-based; parameters: dose 1 mg/kg, time infinity, route intravenous; conditions: in vivo
HCT-116 [26] = test: Antitumor activity against human HCT116 cells xenografted in BALB/c nu/nu mouse assessed as reduction in tumor volume at 20 mg/kg, ip administered twice daily for 21 days; format: functional, organism-based
HCT-116 [27] = test: Induction of apoptosis in human HCT116 cells measured after 24 hrs by Annexin-V/PI staining based flow cytometry; format: functional, cell-based
HCT-116 [28] = test: Cell cycle arrest in human HCT116 cells assessed as accumulation at G2/M phase at 0.5 to 1 uM measured after 24 hrs by propidium iodide staining based flow cytometry; format: functional
HCT-116 [29] = test: Cell cycle arrest in human HCT116 cells assessed as G2/M phase accumulation by measuring >4N DNA content at 0.5 to 1 uM measured after 24 hrs by propidium iodide staining based flow cytometry; format: functional
HCT-116 [30] = test: Antitumor activity against human HCT116 cells xenografted in BALB/c nu/nu mouse assessed as tumor growth inhibition at 20 mg/kg, ip administered twice daily for 21 days; format: functional; conditions: HCT-116, ip, read-out: TGI
Mus musculus = test: Toxicity in BALB/c nu/nu mouse assessed as body weight loss at 20 mg/kg, ip administered twice daily for 21 days; format: organism-based; conditions: in vivo

C[C@@H](Oc1cc(-c2cnc3cc(N4CCN(C)CC4)ccn23)ccc1C(N)=O)c1ccccc1C(F)(F)F
IC50 [1]: 1.19 µM
IC50 (MGC-803): 3.16 µM

COC(=O)c1ccc(-c2cnc3cc(N4CCN(C)CC4)ccn23)cc1OC(C)c1ccccc1C(F)(F)F (stereo not drawn)
IC50 [1]: 42.6 µM

CN(C)CCn1cc(-c2ccn3c(-c4ccc(C(N)=O)c(OCc5cccc(F)c5)c4)cnc3c2)cn1 [listing 1 of 2 here]
IC50 [1]: 0.001 µM
Activity (HCT-116 [2]): 3.5%
IC50 (Bel-7402): 7.13 µM
IC50 [3]: 0.02 µM
IC50 [4]: > 10 µM
Activity (HCT-116 [5]): 20.1%
MRT last [6]: 1.3 h
IC50 [7]: 0.0054 µM
AUCt (Rattus norvegicus [8]): 495 ng·h/mL
Activity (HCT-116 [9]): 26.7%
IC50 (MGC-803): 0.53 µM
IC50 [10]: 0.441 µM
IC50 (Aurora kinase A): 5.3 µM
Activity (HCT-116 [11]): 27.8%
IC50 [12]: 0.091 µM
IC50 [13]: > 10 µM
Vd [14]: 2.53 L/kg
IC50 (HCT-116 [15]): 0.84 µM
clearance [16]: 33.3 mL/min/kg
Activity (HCT-116 [17]): 21.3%
IC50 [18]: 0.0065 µM
IC50 [19]: 0.608 µM
Activity (HCT-116 [20]): 2.6%
half-life [21]: 1.72 h
IC50 [22]: 0.057 µM
IC50 [23]: 0.37 µM
IC50 [24]: 6.23 µM
AUC (Rattus norvegicus [25]): 507 ng·h/mL

CN(C)CCn1cc(-c2ccn3c(-c4ccc(C(N)=O)c(OCc5cccc(F)c5)c4)cnc3c2)cn1 [listing 2 of 2 here]
Activity (HCT-116 [26]): Active
Activity (HCT-116 [27]): Dose-dependent effect
Activity (HCT-116 [28]): Active
Activity (HCT-116 [29]): Active

COc1cc(-c2cnc3cc(N4CCN(C)CC4)ccn23)ccc1C(N)=O
IC50 [1]: 19.3 µM
IC50 (MGC-803): > 30 µM

CN1CCN(c2ccn3c(-c4ccc(C(N)=O)c(OCc5ccccc5)c4)cnc3c2)CC1
IC50 [1]: 3.21 µM
IC50 (MGC-803): 6.21 µM

CN1CCN(c2ccn3c(-c4ccc(C(=O)NO)c(OCc5ccccc5C(F)(F)F)c4)cnc3c2)CC1
IC50 [1]: 10 µM
IC50 (MGC-803): 17.1 µM

CN(C)CCn1cc(-c2ccn3c(-c4ccc(C(N)=O)c(OCc5cccc(F)c5)c4)cnc3c2)cn1.O=C(O)CCC(=O)O.O=C(O)CCC(=O)O
inhibition in vivo at 20 mg/kg (HCT-116 [30]): 36%
Activity (Mus musculus): Non-Toxic

CNC(=O)c1ccc(-c2cnc3cc(N4CCN(C)CC4)ccn23)cc1OC(C)c1ccccc1C(F)(F)F (stereo not drawn)
IC50 [1]: 197 µM

CN(C)CCn1cc(-c2ccn3c(-c4ccc(C(N)=O)c(OCc5ccccc5)c4)cnc3c2)cn1
MRT last [6]: 1.68 h
AUCt (Rattus norvegicus [8]): 386 ng·h/mL
Vd [14]: 4.06 L/kg
clearance [16]: 42.4 mL/min/kg
half-life [21]: 2.42 h
AUC (Rattus norvegicus [25]): 405 ng·h/mL

CN(C)CCn1cc(-c2ccn3c(-c4ccc(C(N)=O)c(OCc5cccc(C(F)(F)F)c5)c4)cnc3c2)cn1
IC50 [1]: 0.007 µM
IC50 (Bel-7402): 2.78 µM
MRT last [6]: 1.38 h
AUCt (Rattus norvegicus [8]): 262 ng·h/mL
IC50 (MGC-803): 0.79 to 0.8 µM
IC50 (Aurora kinase A): > 10 µM
Vd [14]: 5.08 L/kg
IC50 (HCT-116 [15]): 1.29 µM
clearance [16]: 62.8 mL/min/kg
half-life [21]: 1.49 h
AUC (Rattus norvegicus [25]): 268 ng·h/mL

CC(Oc1cc(-c2cnc3cc(N4CCN(C)CC4)ccn23)ccc1C(N)=O)c1ccccc1C(F)(F)F (stereo not drawn)
IC50 [1]: 2.17 µM
IC50 (MGC-803): 12.3 µM
